From patent EP4775208A1, “USE OF PRMT5 INHIBITOR IN TREATMENT OF TUMORS OR CANCERS” (Apeiron Therapeutics (Hong Kong) Ltd., priority 2023, dated 2025)
One block for each molecule: values may come before it.

Tests used:
Assay type in all cases: cell-based
[1] = system: U87MG; assay: Mini cell panel: inhibition of proliferation of U87MG cells; conditions: Homo sapiens, U-87 MG, MTAP (-/-)
Excerpt: (§1) Test 9: Mini Cell Panel: Assay for Inhibitory Activity of Compounds against Proliferation of 20 Tumor Cell Lines
(§2) Materials and Cells: Fifteen MTAP(-/-) cell lines and five MTAP wild-type cell lines were purchased from ATCC (USA). Cell culture media, fetal bovine serum (FBS), and penicillin-streptomycin were purchased from Thermo Fisher Scientific (USA). 384-well plates were purchased from PerkinElmer (USA). The CellTiter-Glo assay kit was purchased from Promega (USA). Paclitaxel was used as the control compound.

[2] = system: BxPc-3; assay: Mini cell panel: inhibition of proliferation of BxPc-3 cells; conditions: Homo sapiens, BXPC-3, MTAP (-/-)
Excerpt: as §1, §2

[3] = system: ACHN; assay: Mini cell panel: inhibition of proliferation of ACHN cells; conditions: Homo sapiens, ACHN, MTAP (-/-)
Excerpt: as §1, §2

[4] = system: MDA-MB-231; assay: Mini cell panel: inhibition of proliferation of MDA-MB-231 cells; conditions: Homo sapiens, MDA-MB-231, MTAP (-/-)
Excerpt: as §1, §2

[5] = system: SW1573; assay: Mini cell panel: inhibition of proliferation of SW1573 cells; conditions: Homo sapiens, SW1573, MTAP (-/-)
Excerpt: as §1, §2

[6] = system: MKN-45; assay: Mini cell panel: inhibition of proliferation of MKN-45 cells; conditions: Homo sapiens, MKN-45, MTAP (-/-)
Excerpt: as §1, §2

[7] = system: SU-DHL-4; assay: Mini cell panel: inhibition of proliferation of SU-DHL-4 cells; conditions: Homo sapiens, SU-DHL-4, MTAP Wild type
Excerpt: as §1, §2

[8] = system: A549; assay: Mini cell panel: inhibition of proliferation of A549 cells; conditions: Homo sapiens, A549, MTAP (-/-)
Excerpt: as §1, §2

[9] = system: SK-MEL-5; assay: Mini cell panel: inhibition of proliferation of SK-MEL-5 cells; conditions: Homo sapiens, MTAP (-/-)
Excerpt: as §1, §2

[10] = system: DOHH-2; assay: Mini cell panel: inhibition of proliferation of DOHH-2 cells; conditions: Homo sapiens, DOHH-2, MTAP (-/-)
Excerpt: as §1, §2

[11] = system: PSN-1; assay: Mini cell panel: inhibition of proliferation of PSN-1 cells; conditions: Homo sapiens, PSN1, MTAP (-/-)
Excerpt: as §1, §2

[12] = system: LU99; assay: Mini cell panel: inhibition of proliferation of LU99 cells; conditions: Homo sapiens, Lu-99, MTAP (-/-)
Excerpt: as §1, §2

[13] = system: CFPAC-1; assay: Mini cell panel: inhibition of proliferation of CFPAC-1 cells; conditions: Homo sapiens, CFPAC-1, MTAP Wild type
Excerpt: as §1, §2

[14] = system: SW780; assay: Mini cell panel: inhibition of proliferation of SW780 cells; conditions: Homo sapiens, SW780, MTAP (-/-)
Excerpt: as §1, §2

[15] = system: LN-18; assay: Mini cell panel: inhibition of proliferation of LN-18 cells; conditions: Homo sapiens, LN-18, MTAP (-/-)
Excerpt: as §1, §2

[16] = system: Calu-1; assay: Mini cell panel: inhibition of proliferation of Calu-1 cells; conditions: Homo sapiens, Calu-1, MTAP Wild type
Excerpt: as §1, §2

[17] = system: SU-DHL-10; assay: Mini cell panel: inhibition of proliferation of SU-DHL-10 cells; conditions: Homo sapiens, SU-DHL10, MTAP Wild type
Excerpt: as §1, §2

[18] = system: Aspc-1; assay: Mini cell panel: inhibition of proliferation of Aspc-1 cells; conditions: Homo sapiens, ASPC1, MTAP Wild type
Excerpt: as §1, §2

[19] = system: NCI-H647; assay: Mini cell panel: inhibition of proliferation of NCI-H647 cells; conditions: Homo sapiens, NCI-H647, MTAP (-/-)
Excerpt: as §1, §2

[20] = system: U87MG MTAP(-/-) cells; assay: Inhibition of proliferation of U87MG MTAP(-/-) cells (CellTiter-Glo); conditions: Homo sapiens, U-87 MG, 144 h, cell proliferation, 6 days
Procedure: Test 7: Assay for Inhibitory Activity of Compounds against U87MG MTAP(-/-) Cell Proliferation
as §2, with “The U87MG” for “Fifteen”, “line was” for “lines and five MTAP wild-type cell lines were”, “(USA).” for “(USA). Paclitaxel was used as the control compound.”
Cell Culture: U87MG MTAP(-/-) cells were cultured in a medium supplemented with 10% fetal bovine serum (FBS) and 1% penicillin-streptomycin at 37°C with 5% CO2. Only cells in the logarithmic growth phase were used for experiments.
(§3) Cell Proliferation Inhibition Assay: The antiproliferative activity of the compounds against U87MG MTAP(-/-) cells was assessed using the CellTiter-Glo assay kit. Cell suspensions were adjusted to the appropriate density and seeded into 384-well plates at a volume of 40 µL per well, then incubated overnight at 37°C with 5% CO2. Compounds (40 nL) were added to each well to achieve final concentrations ranging from 0 to 10,000 nM (starting concentration 10,000 nM, 3-fold serial dilutions, 10 dose points), with a final DMSO concentration of 0.5%. The cell plates were incubated at 37°C with 5% CO2 for 6 days. Subsequently, 40 µL of CellTiter-Glo reagent was added to measure cell viability. Paclitaxel was used as a control compound.

[21] = system: LN18 MTAP(-/-) cells; assay: Inhibition of proliferation of LN18 MTAP(-/-) cells (CellTiter-Glo); conditions: Homo sapiens, LN-18, 168 h, cell proliferation, 7 days
Procedure: Test 5: Assay for Inhibitory Activity of Compounds against LN18 MTAP(-/-) Cell Proliferation
(§4) Materials and Cells: The LN18 MTAP(-/-) cell line was provided by Cobioer Biosciences (China). Cell culture media, fetal bovine serum (FBS), and penicillin-streptomycin were purchased from Thermo Fisher Scientific (USA). 384-well plates were purchased from PerkinElmer (USA). The CellTiter-Glo assay kit was purchased from Promega (USA).
Cell Culture: LN18 MTAP(-/-) cells were cultured in a medium supplemented with 10% fetal bovine serum (FBS) and 1% penicillin-streptomycin at 37°C with 5% CO2. Only cells in the logarithmic growth phase were used for experiments.
as §3, with “LN18” for “U87MG”, “1,000” for “10,000”, “9” for “10”, “[…].” for “0.5%.”, “7” for “6”, “viability.” for “viability. Paclitaxel was used as a control compound.”

[22] = system: LN18 MTAP-overexpressing cells; assay: Inhibition of proliferation of LN18 MTAP-overexpressing cells (CellTiter-Glo); conditions: Homo sapiens, LN-18, 168 h, cell proliferation, 7 days
Excerpt: Test 6: Assay for Inhibitory Activity of Compounds against LN18 MTAP-Overexpressing Cell Proliferatio
as §4, with “MTAP-overexpressing” for “MTAP(-/-)”, “purchased from” for “provided by”
Cell Culture: LN18 MTAP-overexpressing cells were cultured in a medium supplemented with 10% fetal bovine serum (FBS) and 1% penicillin-streptomycin at 37°C with 5% CO2. Only cells in the logarithmic growth phase were used for experiments.
as §3, with “against LN18 MTAP-overexpressing” for “against U87MG MTAP(-/-)”, “dilutions, 9” for “dilutions, 10”, “of […].” for “of 0.5%.”, “for 7” for “for 6”, “viability.” for “viability. Paclitaxel was used as a control compound.”

IC50 [1]: 5.2 nM
IC50 [2]: 0.9 nM
IC50 [3]: 4.1 nM
IC50 [4]: 2.5 nM
IC50 [5]: 2.5 nM
IC50 [6]: 1.8 nM
IC50 [7]: 1.9 nM
IC50 [8]: 1.9 nM
IC50 [9]: 7.8 nM
IC50 [14]: 1.6 nM
IC50 [16]: 9.8 nM
IC50 [17]: 2.8 nM
IC50 [18]: 3.4 nM
IC50 [19]: 1.4 nM
IC50 [20]: 5.55 nM
SMILES: CC(=O)O[C@H]1C(=O)[C@@]2(C)[C@H]([C@H](OC(=O)c3ccccc3)[C@]3(O)C[C@H](OC(=O)[C@H](O)[C@@H](NC(=O)c4ccccc4)c4ccccc4)C(C)=C1C3(C)C)[C@]1(OC(C)=O)CO[C@@H]1C[C@@H]2O [Paclitaxel, reference compound]
IC50 [10]: 3.4 nM
IC50 [11]: 2.9 nM
IC50 [12]: 1.5 nM
IC50 [13]: 1.1 nM
IC50 [15]: 20.6 nM

SMILES: CN(C(=O)c1cc2c(cc1C#N)nc(N)c1cncn12)[C@@H]1COc2cc(C(F)(F)F)ccc21 [Example 14, (S)-4-amino-7-cyano-N-methyl-N-(6-(trifluoromethyl)-2,3-dihydrobenzofuran-3-yl)imi dazo[1,5-a]quinoxaline-8-carboxamide]
IC50 [21]: 5.56 nM
IC50 [22]: 898 nM
IC50 [20]: 79.5 nM
